Molecular target: γ-secretase (Homo sapiens, UniProt P49768)
Assay: Screening for γ-secretase-modulating activity in SKNBE2 cells carrying APP 695 wild type (assay of Citron et al 1997)
Assay type: cell-based
Conditions: SKNBE2, @ 1 uM; SKNBE2 cells carrying the APP 695 wild type
Experimental: Screening was carried out using SKNBE2 cells carrying the APP 695—wild type, grown in DMEM/NUT-mix F12 (HAM) provided by Gibco (cat no. 31330-38) containing 5% Serum/Fe supplemented with 1% non-essential amino acids. Cells were grown to near confluency. The screening was performed using the assay as described in Citron et al (1997) Nature Medicine 3: 67.

CC(C)CCCN1CCC(c2cc(-c3ccc(C(F)(F)F)cc3)cc(C(CC(C)C)C(=O)O)c2)CC1 (stereo not shown) [Example 77, 4-Methyl-2-{5-[1-(4-methyl-pentyl)-piperidin-4-yl]-4′-trifluoromethyl-biphenyl-3-yl}-pentanoic acid]
inhibition at 1 µM: 36%

CC(C)/C=C/CN1CCC(c2cc(-c3ccc(C(F)(F)F)cc3)cc(C(CC(C)C)C(=O)O)c2)CC1 (stereo not shown) [Example 69, 4-Methyl-2-{5-[1-(4-methyl-pent-2-enyl)-piperidin-4-yl]-4′-trifluoromethyl-biphenyl-3-yl}-pentanoic acid]
inhibition at 1 µM: 8%

CC(C)CC(C(=O)O)c1cc(-c2ccc(C(F)(F)F)cc2)cc(C2CCCN(C(=O)c3ccc(C(F)(F)F)cc3)C2)c1 (stereo not shown) [Example 43, 4-Methyl-2-{4′-trifluoromethyl-5-[1-(4-trifluoromethyl-benzoyl)-piperidin-3-yl]-biphenyl-3-yl}-pentanoic acid]
inhibition at 1 µM: 55%

CC(C)CC(C(=O)O)c1cc(-c2ccc(C(F)(F)F)cc2)cc(C2CC[N+](C)(C)CC2)c1 (stereo not shown) [Example 73, 2-[5-(1,1-Dimethyl-piperidin-4-yl)-4′-trifluoromethyl-biphenyl-3-yl]-4-methyl-pentanoic acid]
inhibition at 1 µM: 9%

COc1ccc(CN2C(c3cc(-c4ccc(C(F)(F)F)cc4)cc(C(CC(C)C)C(=O)O)c3)CCCC2C(F)(F)F)cc1 (stereo not shown) [Example 7, 2-{5-[1-(4-Methoxy-benzyl)-6-trifluoromethyl-piperidin-2-yl]-4′-trifluoromethyl-biphenyl-3-yl}-4-methyl-pentanoic acid]
inhibition at 1 µM: 70%

CC(C)CC(C(=O)O)c1cc(-c2ccc(C(F)(F)F)cc2)cc(C2CCC(C(F)(F)F)N(Cc3cccc(C(F)(F)F)c3)C2)c1 (stereo not shown) [Example 28, 4-Methyl-2-{4′-trifluoromethyl-5-[6-trifluoromethyl-1-(3-trifluoromethyl-benzyl)-piperidin-3-yl]-biphenyl-3-yl}-pentanoic acid]
inhibition at 1 µM: 68%

CC(C)CC(C(=O)O)c1cc(-c2ccc(C(F)(F)F)cc2)cc(C2CCN(Cc3cc(F)cc(F)c3)CC2)c1 (stereo not shown) [Example 75, 2-{5-[1-(3,5-Difluoro-benzyl)-piperidin-4-yl]-4′-trifluoromethyl-biphenyl-3-yl}-4-methyl-pentanoic acid]
inhibition at 1 µM: 46%

CC(C)CC(C(=O)O)c1cc(-c2ccc(C(F)(F)F)cc2)cc(C2CCN(c3ccc(C(F)(F)F)cc3)CC2)c1 (stereo not shown) [Example 72, 4-Methyl-2-{4′-trifluoromethyl-5-[1-(4-trifluoromethyl-phenyl)-piperidin-4-yl]-biphenyl-3-yl}-pentanoic acid]
inhibition at 1 µM: 6%

COc1ccc(CN2CCCC(c3cc(-c4ccc(C(F)(F)F)cc4)cc(C(CC(C)C)C(=O)O)c3)C2)cc1C(F)(F)F (stereo not shown) [Example 51, 2-{5-[1-(4-Methoxy-3-trifluoromethyl-benzyl)-piperidin-3-yl]-4′-trifluoromethyl-biphenyl-3-yl}-4-methyl-pentanoic acid]
inhibition at 1 µM: 48%

CC(C)CC(C(=O)O)c1cc(-c2ccc(C(F)(F)F)cc2)cc(C2CCCN(S(=O)(=O)c3cccc(C(F)(F)F)c3)C2)c1 (stereo not shown) [Example 40, 4-Methyl-2-{4′-trifluoromethyl-5-[1-(3-trifluoromethyl-benzenesulfonyl)-piperidin-3-yl]-biphenyl-3-yl}-pentanoic acid]
inhibition at 1 µM: 70%

CC(C)CC(C(=O)O)c1cc(-c2ccc(C(F)(F)F)cc2)cc(C2CCCN(C(C)c3ccc(C(F)(F)F)cc3)C2)c1 (single isomer, unassigned) [Example 63, (S*)-4-Methyl-2-(4′-trifluoromethyl-5-{1-[1-(4-trifluoromethyl-phenyl)-ethyl]-piperidin-3-yl}-biphenyl-3-yl)-pentanoic acid]
inhibition at 1 µM: 44%

CC(C)CC(C(=O)O)c1cc(-c2ccc(C(F)(F)F)cc2)cc(C2CCCN(c3ccc(F)c(F)c3)C2)c1 (stereo not shown) [Example 55, 2-{5-[1-(3,4-Difluoro-phenyl)-piperidin-3-yl]-4′-trifluoromethyl-biphenyl-3-yl}-4-methyl-pentanoic acid]
inhibition at 1 µM: 45%

CC(C)CC(C(=O)O)c1cc(-c2ccc(C(F)(F)F)cc2)cc(C2CCC(C(F)(F)F)CN2)c1 (stereo not shown) [Example 23, 4-Methyl-2-[4′-trifluoromethyl-5-(5-trifluoromethyl-piperidin-2-yl)-biphenyl-3-yl]-pentanoic acid]
inhibition at 1 µM: 30%

CC(C)CCN1CCCC(c2cc(-c3ccc(C(F)(F)F)cc3)cc(C(CC(C)C)C(=O)O)c2)C1 (stereo not shown) [Example 62, 4-Methyl-2-{5-[1-(3-methyl-butyl)-piperidin-3-yl]-4′-trifluoromethyl-biphenyl-3-yl}-pentanoic acid]
inhibition at 1 µM: 5%

CC(C)CCN1CCCCC1c1cc(-c2ccc(C(F)(F)F)cc2)cc(C(CC(C)C)C(=O)O)c1 (stereo not shown) [Example 10, 4-Methyl-2-{5-[1-(3-methyl-butyl)-piperidin-2-yl]-4′-trifluoromethyl-biphenyl-3-yl}-pentanoic acid]
inhibition at 1 µM: 34%

CC(C)CC(C(=O)O)c1cc(-c2ccc(C(F)(F)F)cc2)cc(N2CCC(F)(F)CC2)c1 (stereo not shown) [Example 5, 2-(5-(4,4-difluoropiperidin-1-yl)-4′-(trifluoromethyl)biphenyl-3-yl)-4-methylpentanoic acid]
inhibition at 1 µM: 8%

CC(C)CC(C(=O)O)c1cc(-c2ccc(C(F)(F)F)cc2)cc(C2CCCN(Cc3cc(C(C)(C)C)cc(C(C)(C)C)c3)C2)c1 (stereo not shown) [Example 52, 2-{5-[1-(3,5-Di-tert-butyl-benzyl)-piperidin-3-yl]-4′-trifluoromethyl-biphenyl-3-yl}-4-methyl-pentanoic acid]
inhibition at 1 µM: 58%

CC(C)CCC(c1ccc(C(F)(F)F)cc1)N1CCCC(c2cc(-c3ccc(C(F)(F)F)cc3)cc(C(CC(C)C)C(=O)O)c2)C1 (single isomer, unassigned) [Example 56, (R*) 4-Methyl-2-(5-{1-[4-methyl-1-(4-trifluoromethyl-phenyl)-pentyl]-piperidin-3-yl}-4′-trifluoromethyl-biphenyl-3-yl)-pentanoic acid]
inhibition at 1 µM: 75%

CC(C)CC(C(=O)O)c1cc(-c2ccc(C(F)(F)F)cc2)cc(C2CCCN(Cc3ccc(-n4cccc4)cc3)C2)c1 (stereo not shown) [Example 44, 4-Methyl-2-{5-[1-(4-pyrrol-1-yl-benzyl)-piperidin-3-yl]-4′-trifluoromethyl-biphenyl-3-yl}-pentanoic acid]
inhibition at 1 µM: 46%

CC(C)CC(C(=O)O)c1cc(-c2ccc(C(F)(F)F)cc2)cc(C2CCCN(c3ccccc3)C2)c1 (stereo not shown) [Example 58, 4-Methyl-2-[5-(1-phenyl-piperidin-3-yl)-4′-trifluoromethyl-biphenyl-3-yl]-pentanoic acid]
inhibition at 1 µM: 40%

CC(C)CCN1C(c2cc(-c3ccc(C(F)(F)F)cc3)cc(C(F)(F)C(=O)O)c2)CCCC1C(F)(F)F (stereo not shown) [Example 22, Difluoro-{5-[1-(3-methyl-butyl)-6-trifluoromethyl-piperidin-2-yl]-4′-trifluoromethyl-biphenyl-3-yl}-acetic acid]
inhibition at 1 µM: 35%

CC(C)CC(C(=O)O)c1cc(-c2ccc(C(F)(F)F)cc2)cc(C2CCCN(Cc3cc(C(F)(F)F)cc(C(F)(F)F)c3)C2)c1 (stereo not shown) [Example 53, 2-{5-[1-(3,5-Bis-trifluoromethyl-benzyl)-piperidin-3-yl]-4′-trifluoromethyl-biphenyl-3-yl}-4-methyl-pentanoic acid]
inhibition at 1 µM: 57%

CC(C)CC(C(=O)O)c1cc(-c2ccc(C(F)(F)F)cc2)cc(C2CCNCC2)c1 (stereo not shown) [Example 68, 4-Methyl-2-(5-piperidin-4-yl-4′-trifluoromethyl-biphenyl-3-yl)-pentanoic acid]
inhibition at 1 µM: 2%

CC(C)CC(C(=O)O)c1cc(-c2ccc(C(F)(F)F)cc2)cc(N2CCNCC2)c1 (stereo not shown) [Example 82, 4-Methyl-2-(5-piperazin-1-yl-4′-trifluoromethyl-biphenyl-3-yl)-pentanoic acid]
inhibition at 1 µM: 5%

CC(C)CC(C(=O)O)c1cc(-c2ccc(C(F)(F)F)cc2)cc(C2CCCN(S(=O)(=O)c3ccccc3C(F)(F)F)C2)c1 (stereo not shown) [Example 42, 4-Methyl-2-{4′-trifluoromethyl-5-[1-(2-trifluoromethyl-benzenesulfonyl)-piperidin-3-yl]-biphenyl-3-yl}-pentanoic acid]
inhibition at 1 µM: 63%

— US8252935B2, “Piperidinyl and piperazinyl modulators of γ-secretase” (Janssen Pharmaceutica N.V., priority 2007, dated 2012)
